In one series the target is T1, pancreatic lipase (Homo sapiens, UniProt P16233).
T1 sequence (P16233 17-465): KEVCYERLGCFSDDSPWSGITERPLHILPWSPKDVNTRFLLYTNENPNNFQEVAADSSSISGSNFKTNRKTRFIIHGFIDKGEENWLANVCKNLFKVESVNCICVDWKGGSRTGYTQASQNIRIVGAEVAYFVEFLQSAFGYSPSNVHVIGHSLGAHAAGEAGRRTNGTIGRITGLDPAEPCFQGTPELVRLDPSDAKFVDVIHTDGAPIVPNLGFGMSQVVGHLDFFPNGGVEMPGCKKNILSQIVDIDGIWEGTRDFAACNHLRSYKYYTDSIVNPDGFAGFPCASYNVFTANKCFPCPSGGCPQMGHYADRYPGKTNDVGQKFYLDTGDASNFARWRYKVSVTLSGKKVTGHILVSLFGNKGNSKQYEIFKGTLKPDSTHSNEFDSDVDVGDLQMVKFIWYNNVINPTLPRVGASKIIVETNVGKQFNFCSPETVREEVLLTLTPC
The following applies: application of Orlistat; cited from earlier work.

In series [1] the test system is postprandial triglyceride values in the plasma of rats. Briefly: lipid stress test in rats with Triton WR-1339 (postprandial rise in plasma triglyceride values). In kind it is in vivo. The protocol: For further examination and verification of the results determined in vitro, the triglyceride-reducing effect was tested in an animal experiment.
To this end a lipid stress test was carried out in rats with Triton WR-1339 to inhibit the triglyceride elimination from the blood and the postprandial rise in plasma triglyceride values over four hours The following test substances were used:
Orlistat as positive control.
As result, the rise in postprandial triglyceride values in the plasma of rats after administration of the test substances was recorded. […] They include linseed, sunflower, marigold and propolis.

Another series has as its system triglyceride. Particulars: Tsujita et al. 1996; Kagawa et al. 1996, 1998; cited from earlier work.

Consider `CCCCCCCCCCC[C@@H](C[C@@H]1OC(=O)[C@H]1CCCCCC)OC(=O)[C@H](CC(C)C)NC=O` [Orlistat, Tetrahydrolipstatin], for which the undesired side effects result at pancreatic lipase is reported as “oily or fatty stools”. In series [1] (rat plasma after lipid stress test, experimental period of four hours (FIG. 2)), the “triglyceride values as a function of the time after food intake (in words)” value is given as “the lowest”.
On to “VVYP (UniProt P02070 32-35, looked up, fragment) [fragment 32-35 of the β-chain of bovine haemoglobin]”, for which the “triglyceride-reducing (literature)” value with triglyceride is given as “triglyceride-reducing”.
As to protamine, the “triglyceride-reducing (literature)” value with triglyceride is recorded as “triglyceride reducing”. In addition, in series [1] (rats, lipid stress test with Triton WR-1339, postprandial plasma triglyceride rise (FIG. 1)), the “triglyceride-reducing effect (in words)” value is reported as “no triglyceride-reducing effect was found”.
